Patent publication US20080085855A1, “Perivascular wraps” (Angiotech International AG, priority 2002, published 2008)

Legend:
[1] = test system: intimal hyperplasia; assay: Rat balloon injury carotid artery model, paclitaxel containing mesh; format: in vivo; conditions: 1×1 cm paclitaxel-containing mesh (345 μg paclitaxel in 50:50 PLG coating on 10:90 PLG mesh), perivascular, 14 days after balloon injury
Procedure: Wistar rats weighing 400-500 g were anesthetized with 1.5% halothane in oxygen and the left external carotid artery was exposed. An A 2 French Fogarty balloon embolectomy catheter (Baxter, Irvine, Calif.) was advanced through an arteriotomy in the external carotid artery down the left common carotid artery to the aorta. The balloon was inflated with enough saline to generate slight resistance (approximately 0.02 ml) and it was withdrawn with a twisting motion to the carotid bifurcation. The balloon was then deflated and the procedure repeated twice more. This technique produced distension of the arterial wall and denudation of the endothelium. The external carotid artery was ligated after removal of the catheter. The right common carotid artery was not injured and was used as a control.
Immediately after injury of the left common carotid artery, a 1 cm long distal segment of the artery was exposed and treated with a 1×1 cm paclitaxel-containing mesh. The wound was then closed the animals were kept for 14 days.
At the time of sacrifice, the animals were euthanized with carbon dioxide and pressure perfused at 100 mmHg with 10% phosphate buffered formaldehyde for 15 minutes. Both carotid arteries were harvested and left overnight in fixative. The fixed arteries were processed and embedded in paraffin wax. […]

[2] = test system: intimal hyperplasia; assay: Sheep carotid artery bypass graft (ePTFE) model, paclitaxel containing mesh; conditions: for Percent Change in Maximal Intimal Thickness / Percent Change in % Stenosis / Percent Change in Intimal Area: vs zero-dose mesh;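 for all read-outs here: sheep with ePTFE carotid bypass grafts, PLG mesh wrapped at the distal anastomosis, histology of fixed graft and artery sections about 56 days after implantation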
Procedure: The left and right carotid arteries of anesthetized sheep were exposed by sharp dissection. A tunnel was formed from one carotid artery to the other to accommodate the ePTFE graft. The ePTFE graft was tunneled and trimmed for appropriate length and configuration. Using standard vascular technique, the ePTFE graft was anastomosed end-to-side with running 6-0 polypropylene suture. The angle of the junction between graft and native vessel was approximately 45°. The length of the implanted graft ranged from 9.5-15 cm (average 11 cm).
Paclitaxel was incorporated into the 2 cm×5 cm PLG mesh in the following doses and animal test groups: Group 1, 0 mg; Group 2, 0.6 mg; Group 3, 1.8 mg; and Group 4, 3.0 mg. The mesh was placed at the distal end of the graft at the anastomosis site. To place the mesh, the long side was pulled under the artery and up around either side of the distal end of the graft. One edge was positioned as close to the heel of the anastomosis as possible. The top edges of the mesh were sewn together with one suture on either side of the graft so that no gaps were left in the circumferential direction. One suture was placed at the proximal end and the other at the distal end of the mesh, and sewn to nearby connective tissue to prevent slippage of the mesh away from the anastomosis (see FIG. 6). The surgical sites were closed in layers with running absorbable sutures. Standard antibiotics and analgesics were administered after surgery for several days as required.
At approximately 56 days post-graft implant, animals were anesthetized. Contrast media was injected and angiograms performed of the distal graft and artery at the distal anastomosis. Immediately prior to euthanasia, the animals received heparin (150 U/kg, IV) and immediately after euthanasia, the ePTFE graft was rinsed in situ with lactated Ringers solution and perfusion-fixed in situ with 10% neutral buffered formalin (NBF). The specimens were excised en bloc and allowed to immersion fix in 10% NBF at least 24 hours prior to histological processing.
The fixed specimens were trimmed and mapped accurately for corresponding cross sectional location in reference to the ePTFE graft configuration. […] A total of nine sections were cut at the distal end of the graft: two cut perpendicular to the artery on either side of the anastomosis (A1 and A5), one perpendicular to the artery through the “toe” of the anastomosis (A2), one or two cut through the floor of the anastomosis adjacent to the “toe” (A3 and A4), three cut perpendicular to the graft at its distal end, and one through the center of the graft. Adjacent sections were cut at approximately 3 mm intervals. The specimens were paraffin-embedded, cross-sectioned, and four sets of slides made, two stained with hematoxylin and eosin (H&E), and one each stained with Masson's trichrome and Verhoeff Van Gieson (VVG). These stains were selected for their ability to show tissue cellularity (H&E), collagen, smooth muscle and fibrin (Masson's Trichrome), and elastin (VVG).
The morphometric analysis system consists of an Olympus BX40 microscope, Optronics Image Sensor DEI-750, Sony HR Trinitron monitor, and PC computer equipped with Media Cybernetics Image-Pro Plus software v.

[3] = Dose 0.6 (mg in PLG mesh, Group 2), Graft Section 6, approx. 56 days
[4] = Dose 0.6 (mg in PLG mesh, Group 2), Graft Section 7, approx. 56 days
[5] = Dose 0.6 (mg in PLG mesh, Group 2), Graft Section 8, approx. 56 days
[6] = Dose 1.8 (mg in PLG mesh, Group 3), Graft Section 6, approx. 56 days
[7] = Dose 1.8 (mg in PLG mesh, Group 3), Graft Section 7, approx. 56 days
[8] = Dose 1.8 (mg in PLG mesh, Group 3), Graft Section 8, approx. 56 days
[9] = Dose 3.0 (mg in PLG mesh, Group 4), Graft Section 6, approx. 56 days
[10] = Dose 3.0 (mg in PLG mesh, Group 4), Graft Section 7, approx. 56 days
[11] = Dose 3.0 (mg in PLG mesh, Group 4), Graft Section 8, approx. 56 days

Intraluminal endothelialization ([2]; doses tested (0.6-3.0 mg in mesh)): not affected
Structure (SMILES): CC(=O)O[C@H]1C(=O)[C@@]2(C)[C@H]([C@H](OC(=O)c3ccccc3)[C@]3(O)C[C@H](OC(=O)[C@H](O)[C@@H](NC(=O)c4ccccc4)c4ccccc4)C(C)=C1C3(C)C)[C@]1(OC(C)=O)CO[C@@H]1C[C@@H]2O [Paclitaxel, paclitaxel]
intimal hyperplasia (histology, FIGS. 3-5) [1]: dramatic reduction in intimal hyperplasia
Percent Change in Maximal Intimal Thickness ([2]; Dose 0.6 (mg in 2 cm×5 cm PLG mesh, Group 2), Graft "Toe" Section 2, approx. 56 days): −5%
Percent Change in % Stenosis [2, 3]: −59%^
Percent Change in Intimal Area [2, 3]: −62%^
Percent Change in Maximal Intimal Thickness [2, 3]: −71%^2
Percent Change in % Stenosis [2, 4]: −66%^2
Percent Change in Intimal Area [2, 4]: −67%^2
Percent Change in Maximal Intimal Thickness [2, 4]: −65%
Percent Change in % Stenosis [2, 5]: −75%^2
Percent Change in Intimal Area [2, 5]: −77%
Percent Change in Maximal Intimal Thickness [2, 5]: −59%
Percent Change in Maximal Intimal Thickness ([2]; Dose 1.8 (mg in PLG mesh, Group 3), Graft "Toe" Section 2, approx. 56 days): −28%
Percent Change in % Stenosis [2, 6]: −84%^2
Percent Change in Intimal Area [2, 6]: −85%^2
Percent Change in Maximal Intimal Thickness [2, 6]: −77%^2
Percent Change in % Stenosis [2, 7]: −85%^2
Percent Change in Intimal Area [2, 7]: −85%^2
Percent Change in Maximal Intimal Thickness [2, 7]: −71%^2
Percent Change in % Stenosis [2, 8]: −75%^2
Percent Change in Intimal Area [2, 8]: −76%
Percent Change in Maximal Intimal Thickness [2, 8]: −63%
Percent Change in Maximal Intimal Thickness ([2]; Dose 3.0 (mg in PLG mesh, Group 4), Graft "Toe" Section 2, approx. 56 days): −34%
Percent Change in % Stenosis [2, 9]: −81%^2
Percent Change in Intimal Area [2, 9]: −82%^2
Percent Change in Maximal Intimal Thickness [2, 9]: −74%^2
Percent Change in % Stenosis [2, 10]: −79%^2
Percent Change in Intimal Area [2, 10]: −80%^2
Percent Change in Maximal Intimal Thickness [2, 10]: −69%
Percent Change in % Stenosis [2, 11]: −86%^
Percent Change in Intimal Area [2, 11]: −86%
Percent Change in Maximal Intimal Thickness [2, 11]: −83%^2
MIT (maximal neointimal thickness), group average ±SD ([2]; Section 2 ("toe" section), high dose (3.0 mg), approx. 56 days): 0.54±0.23 mm
MIT less than controls ([2]; Section 2 ("toe" section), high dose (3.0 mg), not statistically significant (p>0.05)): 34%
MIT (maximal neointimal thickness), group average ±SD ([2]; Section 2 ("toe" section), low dose (0.6 mg), approx. 56 days): 0.78±0.30 mm
MIT less than controls ([2]; Section 2 ("toe" section), low dose (0.6 mg), not statistically significant (p>0.05)): 5%
MIT (maximal neointimal thickness), group average ±SD ([2]; Section 2 ("toe" section), mid dose (1.8 mg), approx. 56 days): 0.59±0.14 mm
MIT less than controls ([2]; Section 2 ("toe" section), mid dose (1.8 mg), not statistically significant (p>0.05)): 28%
mechanical integrity of the anastomosis (leakage) ([2]; dose range tested (0.6-3.0 mg in mesh)): does not affect the mechanical integrity of the anastomosis
lesions causing luminal narrowing at the distal end of the graft ([2]; lowest paclitaxel dose, 0.6 mg): marked and signifimayt reduction
reduction in stenosis ([2]; paclitaxel groups (0.6, 1.8, 3.0 mg), sections 6, 7, 8, 7 of 9 values significantly lower than controls (p≦0.05)): 70-80%
IA (neointimal area) reduced ([2]; paclitaxel groups (0.6, 1.8, 3.0 mg), sections 6, 7, 8, vs control group): 70-80%
MIT (maximal neointimal thickness), group average ±SD ([2]; section 6 (first full cross section of graft adjacent to the distal anastomosis), low dose (0.6 mg), p<0.05): 0.38±0.12 mm
MIT (maximal neointimal thickness), group average ±SD ([2]; section 6, high dose (3.0 mg), p<0.05): 0.34±0.20 mm
MIT (maximal neointimal thickness), group average ±SD ([2]; section 6, medium dose (1.8 mg), p<0.05): 0.31±0.29 mm
MIT less than controls ([2]; sections 7 and 8, all the paclitaxel groups (0.6, 1.8, 3.0 mg)): approximately 70%
